# Source: patent US20230192617A1, “AZABICYCLIC(THIO)AMIDES AS FUNGICIDAL COMPOUNDS” (Bayer CropScience Aktiengesellschaft, priority 2020, published 2023)
# Columns and labels:
# [1] = tested on: Alternaria brassicae; experiment: In vivo preventive test on Alternaria brassicae (leaf spot on radish or cabbage); details: 500 ppm of active ingredient, preventive spray on radish or cabbage, evaluated 3 to 4 days after inoculation, read-out: efficacy
# Experimental: B-1. In Vivo Preventive Test on Alternaria brassicae (Leaf Spot on Radish or Cabbage) [table] The active ingredients were made soluble and homogenized in a mixture of Dimethyl sulfoxide/Acetone/Tween® 80 and then diluted in water to the desired concentration. The young plants of radish or cabbage were treated by spraying the active ingredient prepared as described above. Control plants were treated only with an aqueous solution of Acetone/Dimethyl sulfoxide/Tween® 80. After 24 hours, the plants were contaminated by spraying the leaves with an aqueous suspension of Alternaria brassicae spores. The contaminated radish or cabbage plants were incubated for 3 to 4 days at 20° C. and at 100% relative humidity.
# [2] = tested on: Sphaerotheca fuliginea; experiment: In vivo preventive test on Sphaerotheca fuliginea (powdery mildew on cucurbits); details: Podosphaera fuliginea, 192 h; 500 ppm of active ingredient; preventive spray on gherkin; evaluated 8 days after inoculation; read-out: efficacy
# Experimental: B-4. in vivo preventive test on Sphaerotheca fuliginea (powdery mildew on cucurbits) [table] The active ingredients were made soluble and homogenized in a mixture of Dimethyl sulfoxide/Acetone/Tween® 80 and then diluted in water to the desired concentration. The young plants of gherkin were treated by spraying the active ingredient prepared as described above. Control plants were treated only with an aqueous solution of Acetone/Dimethyl sulfoxide/Tween® 80. After 24 hours, the plants were contaminated by spraying the leaves with an aqueous suspension of Sphaerotheca fuliginea spores. The contaminated gherkin plants were incubated for 8 days at 20° C. and at 70-80% relative humidity.
# [3] = tested on: Colletotrichum lindemuthianum; experiment: B-8. Colletotrichum lindemuthianum in vitro cell test; assay type: cell-based; details: 144 h, 20 ppm of active ingredient, 6 days incubation, liquid culture, absorbance, read-out: efficacy (inhibition of fungal growth)
# Method in brief: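 Liquid-culture germination/growth test: compounds in ≤1% final DMSO were added to spore-containing medium. Fungal growth was quantified spectrophotometrically after 6 days of incubation and expressed as inhibition versus untreated controls.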
# [4] = Measurement of Log P values by HPLC on reversed phase columns (EEC directive 79/831 Annex V.A8); assay type: physicochemical; details: method [a]: LC-UV, acidic range, 0.1% formic acid in water and acetonitrile as eluent; for chromatographic logP: reversed phase HPLC column
# Method in brief: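 Log P derived from retention on reversed-phase columns (EEC directive 79/831 Annex V.A8), LC-UV, acetonitrile gradient 10% to 95% against water containing 0.1% formic acid, 0.001 M ammonium acetate, or 0.1% phosphoric acid; several values per method separated by "+".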
# [5] = tested on: Alternaria alternata; experiment: Alternaria alternata in vitro cell test; assay type: cell-based; details: 120 h, 20 ppm of active ingredient, liquid culture, 5 days incubation, spectrometric measurement of mycelium growth, read-out: efficacy (inhibition of fungal growth)
# Experimental: (§1) B-6. Alternaria alternata In Vitro Cell Test [table] Fungicides were solubilized in DMSO and the solution used to prepare the required range of concentrations. The final concentration of DMSO used in the assay was ≤1%. A spore suspension of A. alternata was prepared and diluted to the desired spore density. Fungicides were evaluated for their ability to inhibit spore germination and mycelium growth in liquid culture assay. The compounds were added in the desired concentration to the culture medium with spores. After 5 days incubation, fungi-toxicity of compounds was determined by spectrometric measurement of mycelium growth. Inhibition of fungal growth was determined by comparing the absorbance values in wells containing the fungicides with the absorbance in control wells without fungicides.
# [6] = tested on: Pyrenophora teres; experiment: B-10. Pyrenophora teres in vitro cell test; assay type: cell-based; details: 144 h, 20 ppm of active ingredient, 6 days incubation, liquid culture, absorbance, read-out: efficacy (inhibition of fungal growth)
# Experimental: as §1, with “B-10. Pyrenophora teres” for “B-6. Alternaria alternata”, “P. teres” for “A. alternata”, “6” for “5”
# [7] = tested on: Botrytis cinerea; experiment: B-11. Botrytis cinerea in vitro cell test; assay type: cell-based; details: 144 h, 20 ppm of active ingredient, 6 days incubation, liquid culture, absorbance, read-out: efficacy (inhibition of fungal growth)
# Experimental: as §1, with “B-11. Botrytis cinerea” for “B-6. Alternaria alternata”, “B. cinerea” for “A. alternata”, “6” for “5”
# [8] = tested on: Botrytis cinerea; experiment: In vivo preventive test on Botrytis cinerea (grey mould); details: 500 ppm of active ingredient, preventive spray on gherkin or cabbage, evaluated 4 to 5 days after inoculation, read-out: efficacy
# Experimental: B-2. In Vivo Preventive Test on Botrytis cinerea (Grey Mould) [table] The active ingredients were made soluble and homogenized in a mixture of Dimethyl sulfoxide/Acetone/Tween® 80 and then diluted in water to the desired concentration. The young plants of gherkin or cabbage were treated by spraying the active ingredient prepared as described above. Control plants were treated only with an aqueous solution of Acetone/Dimethyl sulfoxide/Tween® 80. After 24 hours, the plants were contaminated by spraying the leaves with an aqueous suspension of Botrytis cinerea spores. The contaminated gherkin plants were incubated for 4 to 5 days at 17° C. and at 90% relative humidity. The contaminated cabbage plants were incubated for 4 to 5 days at 20° C. and at 100% relative humidity.
chromatographic logP [4],LogP [4],Compound,pest or weed control at 500 ppm [1] [%],pest or weed control at 500 ppm [2] [%],inhibition at 20 ppm [3] [%],inhibition at 20 ppm [5] [%],inhibition at 20 ppm [6] [%],inhibition at 20 ppm [7] [%],pest or weed control at 500 ppm [8] [%]
4.12,–,O=C(NCC(F)(F)c1ccccc1Cl)c1c(Oc2cccc(C(F)(F)F)c2)nnc2ccccc12 [I-214],90 to 100,–,90 to 100,90 to 100,90 to 100,90 to 100,90 to 100
3.63,–,CC(C)Oc1ccc(CCNC(=O)c2c(Oc3cccc(C(F)(F)F)c3)nnc3ccccc23)cn1 [I-087],80 to 89,–,90 to 100,90 to 100,90 to 100,90 to 100,–
4.11,–,Cc1scc(CCNC(=O)c2c(Oc3cccc(C(F)(F)F)c3)nnc3ccccc23)c1C [I-093],90 to 100,–,90 to 100,70 to 79,90 to 100,90 to 100,90 to 100
3,–,O=C(NCCn1cc(Cl)cn1)c1c(Oc2cccc(C(F)(F)F)c2)nnc2ccccc12 [I-244],90 to 100,–,90 to 100,90 to 100,90 to 100,90 to 100,80 to 89
3.45,–,O=C(NCCc1ccc2c(c1)OCO2)c1c(Oc2cccc(C(F)(F)F)c2)nnc2ccccc12 [I-092],90 to 100,–,90 to 100,90 to 100,90 to 100,90 to 100,90 to 100
3.73,–,Cc1ccc2c(c1)[C@@H](NC(=O)c1c(Oc3cccc(C(F)(F)F)c3)nnc3ccccc13)COC2 (racemic) [I-083],90 to 100,–,90 to 100,80 to 89,90 to 100,90 to 100,90 to 100
5.17,–,Cc1ccc(C(F)(F)CNC(=S)c2c(Oc3cccc(C(F)(F)F)c3)cnc3ccccc23)c(C)c1 [I-159],–,90 to 100,70 to 79,–,–,–,–
4.32,–,COc1ccc(CCN(C(C)=O)C(=O)c2c(Oc3cccc(C(F)(F)F)c3)nnc3ccccc23)cc1 [I-090],90 to 100,–,80 to 89,–,90 to 100,90 to 100,90 to 100
3.53,–,O=C(NCCc1cccs1)c1c(Oc2cccc(C(F)(F)F)c2)nnc2ccccc12 [I-237],90 to 100,–,80 to 89,90 to 100,90 to 100,90 to 100,70 to 79
3.38,–,Cc1ccc(C(F)(F)CNC(=O)c2c(Oc3cccc(Cl)c3F)cnc3nccnc23)c(C)c1 [I-100],90 to 100,–,90 to 100,90 to 100,90 to 100,90 to 100,90 to 100
3.94,–,O=C(NCCOc1ccc(Cl)cc1)c1c(Oc2cccc(C(F)(F)F)c2)nnc2ccccc12 [I-085],90 to 100,–,80 to 89,90 to 100,90 to 100,90 to 100,–
3.78,4.02,COc1ccc2c(c1)[C@@H](NC(=O)c1c(Oc3cccc(C(F)(F)F)c3)nnc3ccccc13)[C@@H](OC)CC2 (mixture of isomers) [I-180],90 to 100,–,90 to 100,–,90 to 100,90 to 100,80 to 89

# The remaining lines, values behind:
Compound,chromatographic logP [4],LogP [4],pest or weed control at 500 ppm [1] [%],pest or weed control at 500 ppm [2] [%],inhibition at 20 ppm [3] [%],inhibition at 20 ppm [5] [%],inhibition at 20 ppm [6] [%],inhibition at 20 ppm [7] [%],pest or weed control at 500 ppm [8] [%]
Cc1ccc(C(F)(F)CNC(=O)c2c(Oc3cccc(C(F)(F)F)c3)nnc3cc(C)ccc23)c(C)c1 [I-044],4.45,–,90 to 100,80 to 89,90 to 100,90 to 100,–,–,–
COCc1ccc(C(F)(F)CNC(=O)c2c(Oc3cccc(C(F)(F)F)c3)nnc3ccccc23)c(Cl)c1 [I-074],4.12,–,90 to 100,–,90 to 100,90 to 100,90 to 100,90 to 100,90 to 100
C[C@@H]1CC[C@H](NC(=O)c2c(Oc3cccc(C(F)(F)F)c3)nnc3ccccc23)c2ccccc21 (mixture of isomers) [I-079],4.42,–,90 to 100,–,90 to 100,–,90 to 100,90 to 100,90 to 100
CC(=O)c1ccc(C(F)(F)CNC(=O)c2c(Oc3cccc(C(F)(F)F)c3)nnc3ccccc23)c(Cl)c1 [I-069],3.84,–,90 to 100,–,70 to 79,80 to 89,90 to 100,90 to 100,90 to 100
"Cc1ccc(C(F)(F)CNC(=O)c2c(Oc3cccc(C(F)(F)F)c3)cnc3ccccc23)c(C)c1 [I-039, N-[2-(2,4-dimethylphenyl)-2,2-difluoro-ethyl]-3-[3-(trifluoro-methyl)phenoxy]quinoline-4-carboxamide]",4.46,–,–,90 to 100,90 to 100,90 to 100,–,–,90 to 100
C[C@H](NC(=O)c1c(Oc2cncc(C(F)(F)F)c2)nnc2ccccc12)c1cccc(C(F)(F)F)c1 (racemic) [I-028],3.57,–,–,90 to 100,80 to 89,–,–,–,90 to 100
Cn1cc(-c2ccc(C(F)(F)CNC(=O)c3c(Oc4cccc(C(F)(F)F)c4)nnc4ccccc34)c(Cl)c2)cn1 [I-065],3.71,–,90 to 100,–,–,70 to 79,90 to 100,90 to 100,90 to 100
Cc1cccc2c1OCC[C@@H]2NC(=O)c1c(Oc2cccc(C(F)(F)F)c2)nnc2ccccc12 (racemic) [I-082],4.07,–,90 to 100,–,90 to 100,90 to 100,90 to 100,90 to 100,90 to 100
